Test results: PubChem BioAssay (NCI)
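Test compounds were applied to cells in 96-well plates for 48 hours at 5 doses. Here, GI50 denotes the concentration required for 50% inhibition of growth. TGI marks complete inhibition of growth.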

Experiments:
Assay in all cases: growth of human tumour cells (NCI), 48 h
HCT-116 colon = test system: HCT-116 colon
HCT-15 colon = test system: HCT-15 colon
HS 578T breast = test system: HS 578T breast
M14 melanoma = test system: M14 melanoma
NCI-H226 lung = test system: NCI-H226 lung
OVCAR-4 ovarian = test system: OVCAR-4 ovarian
RXF 393 renal = test system: RXF 393 renal
SF-295 CNS = test system: SF-295 CNS
SK-MEL-5 melanoma = test system: SK-MEL-5 melanoma
TK-10 renal = test system: TK-10 renal

| SMILES | GI50 (HCT-116 colon) [µM] | TGI (HCT-116 colon) [µM] | GI50 (HCT-15 colon) [µM] | TGI (HCT-15 colon) [µM] | GI50 (HS 578T breast) [µM] | TGI (HS 578T breast) [µM] | GI50 (M14 melanoma) [µM] | TGI (M14 melanoma) [µM] | GI50 (NCI-H226 lung) [µM] | TGI (NCI-H226 lung) [µM] | GI50 (OVCAR-4 ovarian) [µM] | TGI (OVCAR-4 ovarian) [µM] | GI50 (RXF 393 renal) [µM] | TGI (RXF 393 renal) [µM] | GI50 (SF-295 CNS) [µM] | TGI (SF-295 CNS) [µM] | GI50 (SK-MEL-5 melanoma) [µM] | TGI (SK-MEL-5 melanoma) [µM] | GI50 (TK-10 renal) [µM] | TGI (TK-10 renal) [µM] |
| --- | --- | --- | --- | --- | --- | --- | --- | --- | --- | --- | --- | --- | --- | --- | --- | --- | --- | --- | --- | --- |
| CN1C(=O)C(c2c[nH]c3ccccc23)=C(c2c[nH]c3ccccc23)C1=O | 6.75 | > 25 | 5.77 | > 25 | 5.18 | 21.3 | 5.96 | 17.2 | 5.96 | > 19.4 | 7.58 | > 25 | 4.41 | 12.8 | 4.48 | 11.8 | 4.5 | 10.9 | 12.5 | > 25 |
| O=C(N/N=C/c1ccc(Cl)cc1)c1ccc(NC(=O)c2ccccn2)cc1 | 11.8 | > 100 | 42.1 | > 100 | 21.1 | > 100 | 56.8 | > 100 | 24.5 | > 100 | 3.07 | 10.6 | 15.4 | 63.3 | 28.7 | > 100 | 8.76 | 41.8 | 16.6 | 46.8 |
| COc1cc(/C=C/C(=O)c2cccc(-n3cc(-c4ccccc4)[nH]c3=O)c2)cc(OC)c1OC | 0.332 | 1.2 | 1.13 | 5.7 | 3.41 | 27.1 | 1.35 | 2.72 | 14.6 | 97.4 | 1.88 | 5.07 | 1.71 | 3.53 | 1.9 | 4.41 | 1.4 | 2.69 | 3.02 | 9.35 |
| CCOC(=O)c1noc2c1CCc1c-2cn(Cc2ccc(OC)cc2)c1-c1cc(OC)c(OC)c(OC)c1 | 0.399 | > 100 | 0.499 | > 100 | 2.99 | > 100 | 0.41 | > 100 | > 100 | > 100 | 20.5 | > 100 | 2.17 | 45.6 | 3.02 | > 100 | 0.493 | 66.7 | > 100 | > 100 |
| COc1ccc(-c2nc3sc(-c4cc(OC)c(OC)c(OC)c4)nn3c2/C=C2/C(=O)Nc3ccc(F)cc32)cc1 | 14.2 | 40.5 | 2.5 | > 100 | 16.2 | > 100 | 5.51 | 28.1 | 16.8 | 36.7 | 1.77 | 4.51 | 3.96 | 18.7 | 3 | 10.8 | 1.64 | 3.65 | 2.26 | 4.23 |
| CC1CCCCCC(=O)c2c(O)cc(O)cc2CC(=O)O1 (stereo not given) | – | > 100 | – | > 100 | – | > 100 | – | > 100 | – | > 100 | – | > 100 | – | > 100 | – | > 100 | – | > 100 | – | > 100 |
| O=[N+]([O-])c1ccc(C2=NCCO2)cc1 | > 100 | > 100 | > 100 | > 100 | > 100 | > 100 | > 100 | > 100 | > 100 | > 100 | > 100 | > 100 | > 100 | > 100 | > 100 | > 100 | > 100 | > 100 | > 100 | > 100 |
| CCNC1=C(NC(=O)c2ccc(F)cc2)C(=O)c2ccccc2C1=O | – | > 100 | – | > 100 | – | > 100 | – | 63.5 | – | > 100 | – | > 100 | – | 84.4 | – | > 100 | – | > 100 | – | > 100 |
| CN1CCN(Cc2ccc(NC(=O)c3cncc(C#Cc4cnc(N)c5ncccc45)c3)cc2C(F)(F)F)CC1 | 0.122 | 1.74 | 0.314 | 12.7 | 0.213 | 1.68 | 0.0698 | 1.14 | 0.267 | 12.5 | 0.1 | 1.29 | 0.26 | 1.09 | 0.55 | 15.5 | 0.432 | 1.59 | 0.686 | 3.68 |
| O=S(=O)(NCCCNc1cc(-c2cn(-c3ccccc3)nc2-c2cccc(O)c2)ccn1)c1ccc(C(F)(F)F)cc1 | 1.44 | 2.95 | 1.47 | 3.36 | 1.46 | 5.77 | 1.66 | 3.24 | 2.31 | 6.25 | 1.87 | 5.78 | 1.24 | 2.84 | 1.79 | 3.64 | 1.56 | 2.97 | 3.32 | 9.84 |
| O=C1NN2CC(c3ccccc3)=NN=C2c2ccccc21 | 17.4 | 36.7 | 24.4 | 86.3 | 68 | > 100 | 21.9 | 48.9 | 22.8 | 57.8 | 61 | > 100 | 23 | 48.4 | 32.8 | > 100 | 26.8 | 67.2 | 31.5 | 98.3 |
| C[C@@H]1CN2[C@H]3[C@@H]1CC[C@]31CCC(=O)O[C@]1(C)[C@H]1CC[C@H]3CCC=C3[C@@H]12 | > 30 | > 30 | > 30 | > 30 | > 30 | > 30 | > 30 | > 30 | > 30 | > 30 | > 30 | > 30 | > 30 | > 30 | > 30 | > 30 | > 30 | > 30 | > 30 | > 30 |
| Cn1cc(C2=C(c3ccsc3)C(=O)NC2=O)c2ccccc21 | > 25 | > 25 | > 22.7 | > 25 | > 25 | > 25 | > 25 | > 25 | > 22.6 | > 25 | > 25 | > 25 | 24.4 | > 25 | > 25 | > 25 | > 25 | > 25 | > 25 | > 25 |
| CC1=C(CCCOC(=O)[C@H](N)CC(C)C)C2=C(C)C3(CC3)[C@@](C)(O)C(=O)C2=C1 | 1.7 | 5.91 | 2.1 | > 100 | 5.3 | 43.8 | 1.67 | 4.41 | 1.89 | 6.95 | 1.54 | 21.6 | 0.492 | 1.29 | 2.19 | > 31.2 | 1.44 | 2.83 | 2.88 | 7.92 |
| Cc1c(Cl)cccc1C(=O)Nc1nc2c(s1)CN(C(=O)Nc1cccc(C(F)(F)F)c1)CC2 | 0.212 | > 50 | 0.129 | > 50 | 0.163 | > 50 | 0.167 | > 50 | 0.213 | 7.65 | 1.45 | > 50 | 0.106 | 0.349 | 0.125 | > 41.6 | 0.182 | 3.75 | 1.56 | > 50 |
